Results: publication PMC9085577, “Discovery of a Potent and Orally Active Dual GPBAR1/CysLT1R Modulator for the Treatment of Metabolic Fatty Liver Disease” (Frontiers in Pharmacology, 2022)

Tested on: liver transcriptome
Assay: AmpliSeq liver transcriptome of HFD-F mice
Type: in vivo
From the text: C57BL/6J male mice were fed a high fat diet (HFD) containing 59 KJ% fat plus 1% cholesterol, w/o sugar (ssniff ® EF R/M acc. D12330 mod. 22,7 ME/kg) and fructose (HFD-F) in drinking water (42 g/L), or normal chow diet for 61 days. Food intake was estimated as the difference of weight between the offered and the remnant amount of food at 3-days intervals. The food was provided as pressed pellets and the residual spillage was not considered. After 7 days, HFD-F mice were randomized to receive HFD-F alone or in combination with compound 2 (30 mg/kg/day) by gavage until the end of the experiment. Doses of each agent were chosen according to previously published data. Mice were housed under controlled temperature (22°C) and photoperiods (12:12-h light/dark cycle), allowed unrestricted access to standard mouse chow and tap water. The experimental protocol was approved by the Animal Care and Use Committee of the University of Perugia and by the Italian Minister of Health and Istituto Superiore di Sanità (Italy) and was in agreement with the European guidelines for use of experimental animals (permission n. 583/2017-PR). The general health of the animals was monitored daily by the Veterinarian in the animal facility. At the day of sacrifice, fed mice were deeply anesthetized with a mixture of tiletamine hypochloride and zolazepam hypochloride/xylazine at a dose of 50/5 mg/kg and sacrificed before 12 a.m.
High-quality RNA was extracted from mice livers, using the Direct-zol™ RNA MiniPrep w/Zymo-Spin™ IIC Columns (Zymo Research, Irvine, CA) according to the manufacturer’s instructions. RNA quality and quantity were assessed with the Qubit® RNA HS Assay Kit and a Qubit 3.0 fluorometer (Invitrogen, Carlsbad, CA) followed by agarose gel electrophoresis. Libraries were generated using the Ion AmpliSeq™ Transcriptome Mouse Gene Expression Core Panel and Chef-Ready Kit (Comprehensive evaluation of AmpliSeq transcriptome, a whole transcriptome RNA sequencing methodology) (Thermo Fisher Scientific, Waltham, MA). Briefly, 10 ng of RNA was reverse transcribed with SuperScript™ Vilo™ cDNA Synthesis Kit (Thermo Fisher Scientific, Waltham, MA) before library preparation on the Ion Chef™ instrument (Thermo Fisher Scientific, Waltham, MA). The resulting cDNA was amplified to prepare barcoded libraries using the Ion Code™ PCR Plate, and the Ion AmpliSeq™ Transcriptome Mouse Gene Expression Core Panel (Thermo Fisher Scientific, Waltham, MA), Chef-Ready Kit, according to the manufacturer’s instructions. Barcoded libraries were combined to a final concentration of 100 p.m., and used to prepare Template-Positive Ion Sphere™ (Thermo Fisher Scientific, Waltham, MA) Particles to load on Ion 540™ Chips, using the Ion 540™ Kit-Chef (Thermo Fisher Scientific, Waltham, MA). Sequencing was performed on an Ion S5™ Sequencer with Torrent Suite™ Software v6 (Thermo Fisher Scientific, Waltham, MA). The analyses were performed with a range of fold <−2 and >+2 and a p value <0.05, using Transcriptome Analysis Console Software (version 4.0.1), certified for AmpliSeq analysis (Thermo-Fisher). The transcriptomic data have been deposited as dataset on Mendeley data repository (reference number linking to the repository: Fiorucci, Stefano; Biagioli, Michele; Marchianò, Silvia; Di Giorgio, Cristina (2021), “Discovery of potent dual GPBAR1/CysLT1R modulator for the treatment of metabolic fatty liver disease,” Mendeley Data, V1, doi: 10.17632/6dnrk9fc72.1).

[1] = HFD-F mice, 30 mg/kg/day by gavage
[2] = in comparison to untreated mice

O=C(O)c1cccc(-c2ccc(OCc3ccc4ccccc4n3)cc2)c1 [Compound 2, 4'-(quinolin-2-ylmethoxy)-[1,1′-biphenyl]-3-carboxylic acid]
liver expression of Alox5 [1]: downregulated | liver expression of Col1α1 [1]: reversed | liver expression of Elov5, Mogat1, fabp2, Cd36, Me1, and Cidea [1]: reduced significantly | liver expression of FXR and its target genes Shp and Bsep [1]: no effect | liver expression of Fasn [1]: reduced significantly | liver expression of Fgf21 [1]: decreased | liver expression of Srepb1f [1]: no effect | liver expression of αSma [1]: reversed | liver expression of Cyp7a1 (HFD-F mice, 30 mg/kg/day by gavage, 30 mg/kg/day): potently increased | number of liver genes modulated compared to HFD-F alone (fold change <−2 or >2, p value < 0.05): 154 | liver expression of Pparα [2]: increased | liver expression of Pparγ [2]: increased | 1810011O10Rik transcript Avg (log2) (liver, HFD + compound 2): 5.22 log2 | 2310001K24Rik transcript Avg (log2) (liver, HFD + compound 2): 2.22 log2 | 2310039H08Rik transcript Avg (log2) (liver, HFD + compound 2): 3.92 log2 | 4833423E24Rik transcript Avg (log2) (liver, HFD + compound 2): 1.1 log2 | 6430573F11Rik transcript Avg (log2) (liver, HFD + compound 2): 1.17 log2 | AW549542 transcript Avg (log2) (liver, HFD + compound 2): 6.06 log2 | Abcb1a transcript Avg (log2) (liver, HFD + compound 2): 2.24 log2 | Acod1 transcript Avg (log2) (liver, HFD + compound 2): 0.24 log2 | Acot3 transcript Avg (log2) (liver, HFD + compound 2): 1.85 log2 | Adam8 transcript Avg (log2) (liver, HFD + compound 2): 0.63 log2 | Adam11 transcript Avg (log2) (liver, HFD + compound 2): 7.79 log2 | Anxa2 transcript Avg (log2) (liver, HFD + compound 2): 4.37 log2 | Apcs transcript Avg (log2) (liver, HFD + compound 2): 6.13 log2 | Arntl transcript Avg (log2) (liver, HFD + compound 2): 1.77 log2 | Arsg transcript Avg (log2) (liver, HFD + compound 2): 4.36 log2 | Atp1a3 transcript Avg (log2) (liver, HFD + compound 2): 0.63 log2 | Aurka transcript Avg (log2) (liver, HFD + compound 2): 0.66 log2 | Avpr1a transcript Avg (log2) (liver, HFD + compound 2): 3.76 log2 | Bcat1 transcript Avg (log2) (liver, HFD + compound 2): 0 log2 | C920009B18Rik transcript Avg (log2) (liver, HFD + compound 2): 0.43 log2 | Cabyr transcript Avg (log2) (liver, HFD + compound 2): 3.88 log2 | Capn11 transcript Avg (log2) (liver, HFD + compound 2): 2.07 log2 | Ccl2 transcript Avg (log2) (liver, HFD + compound 2): 2.2 log2 | Ccl3 transcript Avg (log2) (liver, HFD + compound 2): 1.68 log2 | Ccl4 transcript Avg (log2) (liver, HFD + compound 2): 0.13 log2 | Ccl7 transcript Avg (log2) (liver, HFD + compound 2): 0.8 log2 | Ccl9 transcript Avg (log2) (liver, HFD + compound 2): 5.17 log2 | Cd9 transcript Avg (log2) (liver, HFD + compound 2): 5.07 log2 | Cd14 transcript Avg (log2) (liver, HFD + compound 2): 2.99 log2 | Cd36 transcript Avg (log2) (liver, HFD + compound 2): 4.05 log2 | Cd63 transcript Avg (log2) (liver, HFD + compound 2): 2.97 log2 | Cdk1 transcript Avg (log2) (liver, HFD + compound 2): 1.66 log2 | Cdkl2 transcript Avg (log2) (liver, HFD + compound 2): 1.24 log2 | Cdkn1a transcript Avg (log2) (liver, HFD + compound 2): 1.4 log2 | Cdkn3 transcript Avg (log2) (liver, HFD + compound 2): 0.2 log2 | Ces2b transcript Avg (log2) (liver, HFD + compound 2): 4.12 log2 | Cetn4 transcript Avg (log2) (liver, HFD + compound 2): 1.14 log2 | Chka transcript Avg (log2) (liver, HFD + compound 2): 4.93 log2 | Chrna4 transcript Avg (log2) (liver, HFD + compound 2): 2.32 log2 | Cidea transcript Avg (log2) (liver, HFD + compound 2): 0.78 log2 | Cidec transcript Avg (log2) (liver, HFD + compound 2): 5.15 log2 | Cirbp transcript Avg (log2) (liver, HFD + compound 2): 6.69 log2 | Ckap2 transcript Avg (log2) (liver, HFD + compound 2): 0.6 log2 | Clec4e transcript Avg (log2) (liver, HFD + compound 2): 0.33 log2 | Clec4d transcript Avg (log2) (liver, HFD + compound 2): 0.27 log2 | Col27a1 transcript Avg (log2) (liver, HFD + compound 2): 6.19 log2 | Csf3 transcript Avg (log2) (liver, HFD + compound 2): 0.06 log2 | Cxcl2 transcript Avg (log2) (liver, HFD + compound 2): 1 log2 | Cyp1a2 transcript Avg (log2) (liver, HFD + compound 2): 11.93 log2 | Cyp2a5 transcript Avg (log2) (liver, HFD + compound 2): 10.52 log2 | Cyp7a1 transcript Avg (log2) (liver, HFD + compound 2): 9.39 log2 | Cyp17a1 transcript Avg (log2) (liver, HFD + compound 2): 4.11 log2 | D17H6S56E-5 transcript Avg (log2) (liver, HFD + compound 2): 1.96 log2 | Dbp transcript Avg (log2) (liver, HFD + compound 2): 7.05 log2 | Defb1 transcript Avg (log2) (liver, HFD + compound 2): 1.19 log2 | Derl2 transcript Avg (log2) (liver, HFD + compound 2): 4.75 log2 | Dhrs9 transcript Avg (log2) (liver, HFD + compound 2): 1.65 log2 | Dtx4 transcript Avg (log2) (liver, HFD + compound 2): 2.62 log2 | Dusp8 transcript Avg (log2) (liver, HFD + compound 2): 1.5 log2 | Egr1 transcript Avg (log2) (liver, HFD + compound 2): 3.52 log2 | Ell transcript Avg (log2) (liver, HFD + compound 2): 5.75 log2 | Elovl3 transcript Avg (log2) (liver, HFD + compound 2): 8.94 log2 | Elovl5 transcript Avg (log2) (liver, HFD + compound 2): 9.72 log2 | Ephb2 transcript Avg (log2) (liver, HFD + compound 2): 0.78 log2 | Epm2aip1 transcript Avg (log2) (liver, HFD + compound 2): 2.63 log2 | Fam57a transcript Avg (log2) (liver, HFD + compound 2): 2.02 log2 | Fgf21 transcript Avg (log2) (liver, HFD + compound 2): 2.1 log2 | Fxyd2 transcript Avg (log2) (liver, HFD + compound 2): 0.72 log2
